Measurements reported in ChEMBL document CHEMBL6103539, “A critical analysis of design, binding pattern and SAR of benzo-fused heteronuclear compounds as VEGFR-2 inhibitors” (Bioorg Med Chem, 2024).

How the values were obtained:
HeLa [1] = assay: Antiproliferative activity against human HeLa cells assessed as reduction in cell growth incubated for 48 hrs by MTT assay; type: toxicity, cell-based
[2] = target: T1, Vascular endothelial growth factor receptor 2 (Homo sapiens, UniProt P35968); assay: Inhibition of VEGFR-2 (unknown origin) at 1 uM using Poly(4:1 Glu, Tyr) as substrate by Kinase-Glo Max reagent based luminescence analysis relative to control
T1 sequence (P35968 whole entry): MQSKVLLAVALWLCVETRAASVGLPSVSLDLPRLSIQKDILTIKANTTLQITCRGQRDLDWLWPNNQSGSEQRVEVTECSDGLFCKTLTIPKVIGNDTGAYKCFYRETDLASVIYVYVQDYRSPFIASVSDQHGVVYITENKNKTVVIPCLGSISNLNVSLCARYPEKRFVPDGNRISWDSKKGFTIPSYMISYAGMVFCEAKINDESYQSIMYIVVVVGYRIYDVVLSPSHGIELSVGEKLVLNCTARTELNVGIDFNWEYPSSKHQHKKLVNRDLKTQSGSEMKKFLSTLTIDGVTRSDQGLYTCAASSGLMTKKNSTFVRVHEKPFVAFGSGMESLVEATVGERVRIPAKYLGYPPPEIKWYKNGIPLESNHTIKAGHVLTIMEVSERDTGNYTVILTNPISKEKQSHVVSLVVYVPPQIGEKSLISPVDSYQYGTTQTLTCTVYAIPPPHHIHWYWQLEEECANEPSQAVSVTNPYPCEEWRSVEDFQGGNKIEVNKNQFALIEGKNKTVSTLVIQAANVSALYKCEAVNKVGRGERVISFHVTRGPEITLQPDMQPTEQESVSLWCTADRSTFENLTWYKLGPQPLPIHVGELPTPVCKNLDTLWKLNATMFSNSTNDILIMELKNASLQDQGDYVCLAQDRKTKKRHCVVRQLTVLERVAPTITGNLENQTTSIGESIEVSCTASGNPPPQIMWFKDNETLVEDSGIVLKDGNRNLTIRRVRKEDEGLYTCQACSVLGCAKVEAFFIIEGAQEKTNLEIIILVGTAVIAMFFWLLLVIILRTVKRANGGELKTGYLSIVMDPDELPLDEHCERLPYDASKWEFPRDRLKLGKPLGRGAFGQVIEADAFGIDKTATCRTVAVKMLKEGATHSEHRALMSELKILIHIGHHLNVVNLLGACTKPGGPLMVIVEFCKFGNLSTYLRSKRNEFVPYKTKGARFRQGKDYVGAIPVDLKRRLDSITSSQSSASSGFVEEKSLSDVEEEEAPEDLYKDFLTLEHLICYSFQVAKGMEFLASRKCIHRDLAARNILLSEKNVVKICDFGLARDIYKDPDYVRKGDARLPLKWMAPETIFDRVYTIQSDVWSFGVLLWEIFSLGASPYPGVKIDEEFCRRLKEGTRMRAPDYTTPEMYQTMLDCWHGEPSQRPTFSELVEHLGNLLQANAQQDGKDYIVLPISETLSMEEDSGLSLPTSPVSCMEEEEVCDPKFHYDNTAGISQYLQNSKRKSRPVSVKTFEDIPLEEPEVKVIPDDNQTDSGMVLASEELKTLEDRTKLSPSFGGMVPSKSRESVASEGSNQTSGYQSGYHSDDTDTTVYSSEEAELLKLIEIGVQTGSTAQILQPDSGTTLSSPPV

A549 [3] = assay: Antiproliferative activity against human A549 cells assessed as reduction in cell growth incubated for 48 hrs by MTT assay; type: toxicity, cell-based; settings: A549, 48 h
NCI-H1975 = assay: Antiproliferative activity against human NCI-H1975 cells assessed as reduction in cell growth incubated for 48 hrs by MTT assay; type: toxicity, cell-based; settings: NCI-H1975, 48 h
[4] = Antiproliferative activity against human HUVEC cells assessed as reduction in cell growth incubated for 48 hrs by MTT assay; type: toxicity, cell-based
MCF7 [5] = assay: Antiproliferative activity against human MCF7 cells assessed as cell growth inhibition measured for 24 hrs by MTT assay; type: functional, cell-based; settings: MCF7, 24 h
HCT-116 [6] = assay: Antiproliferative activity against human HCT-116 cells assessed as cell growth inhibition measured for 24 hrs by MTT assay; type: functional, cell-based; settings: HCT-116, 24 h
[7] = Cytotoxicity against human MDA-MB-435 cells assessed as reduction in cell viability incubated for 72 hrs by CCK-8 assay; type: toxicity, cell-based
HeLa [8] = assay: Cytotoxicity against human HeLa cells assessed as reduction in cell viability incubated for 72 hrs by CCK-8 assay; type: functional, cell-based
[9] = Cytotoxicity against human HUVEC cells assessed as reduction in cell viability incubated for 72 hrs by CCK-8 assay; type: toxicity, cell-based
[10] = Cytotoxicity against human A549 cells assessed as reduction in cell viability incubated for 72 hrs by CCK-8 assay; type: toxicity, cell-based
[11] = target: T1, Vascular endothelial growth factor receptor 2; assay: Inhibition of VEGFR-2 (unknown origin) at 1 uM by ELISA method relative to control
HT-29 = assay: Cytotoxicity against human HT-29 cells assessed as reduction in cell viability incubated for 72 hrs by CCK-8 assay; type: functional, cell-based; settings: HT-29, 72 h
MCF7 [12] = assay: Cytotoxicity against human MCF7 cells assessed as reduction in cell viability incubated for 48 hrs by SRB assay; type: functional, cell-based; settings: MCF7, 48 h
[13] = target: T1, Vascular endothelial growth factor receptor 2; assay: Inhibition of VEGFR2 in human MCF7 cells by horseradish peroxidase-coupled TMB substrate based ELISA; type: cell-based
A549 [14] = assay: Cytotoxicity against human A549 cells; type: functional, cell-based
DU-145 [15] = assay: Cytotoxicity against human DU-145 cells; type: functional, cell-based
MCF7 [16] = assay: Cytotoxicity against human MCF7 cells; type: functional, cell-based
HCT-116 [17] = assay: Antiproliferative activity against human HCT-116 cells assessed as reduction in cell viability incubated for 48 hrs by MTT assay; type: functional, cell-based; settings: HCT-116, 48 h
A549 [18] = assay: Antiproliferative activity against human A549 cells assessed as reduction in cell viability incubated for 48 hrs by MTT assay; type: functional, cell-based; settings: A549, 48 h
MCF7 [19] = assay: cells; settings: Homo sapiens, MCF7, 72 h
Description: Cytotoxicity against human MCF7 cells assessed as reduction in cell viability incubated for 72 hrs by MTT assay

HCT-116 [20] = assay: cells; settings: Homo sapiens, HCT-116, 72 h
Description: Cytotoxicity against human HCT-116 cells assessed as reduction in cell viability incubated for 72 hrs by MTT assay

HepG2 [21] = assay: cells; settings: Homo sapiens, HepG2, 72 h
Description: Cytotoxicity against human HepG2 cells assessed as reduction in cell viability incubated for 72 hrs by MTT assay

MCF7 [22] = assay: Antiproliferative activity against human MCF7 cells; type: functional, cell-based
DU-145 [23] = assay: Antiproliferative activity against human DU-145 cells; type: functional, cell-based
NCI-H522 = assay: Inhibition of cell proliferation in human NCI-H522 cells at 0.3 uM relative to control; type: functional
SK-MEL-2 = assay: Inhibition of cell proliferation in human SK-MEL-2 cells at 0.3 uM relative to control; type: functional
UO-31 = assay: Antiproliferative activity against human UO-31 cells assessed as reduction in cell viability incubated for 48 hrs by MTT assay; type: functional, cell-based; settings: UO-31, 48 h
MCF7 [24] = assay: Growth inhibition of human MCF7 cells; type: functional
[25] = target: T1, Vascular endothelial growth factor receptor 2; assay: Inhibition of VEGFR-2 in human MCF7 cells by ELISA method; type: cell-based
MCF7 [26] = assay: Cytotoxicity against human MCF7 cells assessed as reduction in cell viability incubated for 48 hrs by MTT assay; type: functional, cell-based; settings: MCF7, 48 h
[27] = target: T1, Vascular endothelial growth factor receptor 2; assay: Inhibition of human VEGFR-2 by ELISA method
HepG2 [28] = assay: Antiproliferative activity against human HepG2 cells assessed as cell growth inhibition measured for 24 hrs by MTT assay; type: functional, cell-based; settings: HepG2, 24 h

Question: Which IC50 (HeLa [1]) does the source give for O=C(Nc1ccc(OC(F)(F)F)cc1)Nc1ccc2oc(-c3ccccc3Cl)nc2c1 here?
Answer: 280 nM

Question: What about the inhibition [2] of the same molecule?
Answer: 98.6%

Question: And the IC50 (A549 [3])?
Answer: 7610 nM

Question: And the IC50 (NCI-H1975)?
Answer: 1400 nM

Question: And the IC50 at 48 h [4]?
Answer: 8460 nM

Question: Which results are given for O=C(CSc1nc2ccccc2o1)Nc1ccc(C(=O)NC2CCCCC2)cc1?
Answer: IC50 (MCF7 [5]): 7200 nM; IC50 (HCT-116 [6]): 7800 nM

Question: Which IC50 at 72 h [7] does the source give for Cn1c(COC(=O)c2c[nH]c3ccccc23)nc2ccccc21 here?
Answer: 540 nM

Question: And the IC50 (HeLa [8])?
Answer: 270 nM

Question: What about the IC50 at 72 h [9] of the same molecule?
Answer: 260 nM

Question: And the IC50 at 72 h [10]?
Answer: 210 nM

Question: And the inhibition [11]?
Answer: 33.9%

Question: And the IC50 (HT-29)?
Answer: 360 nM

Question: For COc1cc(-c2nc3ccccc3s2)ccc1OCC(=O)N/N=C/c1ccc(O)cc1, which IC50 (MCF7 [12]) is on record?
Answer: 7830 nM

Question: What about the IC50 [13] of the same molecule?
Answer: 190 nM

Question: Which IC50 (MCF7 [12]) does the source give for COC(=O)COc1ccc(/C=N/NC(=O)COc2ccc(-c3nc4ccccc4s3)cc2OC)cc1OC here?
Answer: 21900 nM

Question: And the IC50 [13]?
Answer: 130 nM

Question: With COc1ccc2[nH]cc(C(=O)OCc3nc4ccccc4n3C)c2c1 as the molecule, how does the IC50 at 72 h [7] read?
Answer: 450 nM

Question: What about the IC50 (HeLa [8]) of the same molecule?
Answer: 260 nM

Question: What about the IC50 at 72 h [9] of the same molecule?
Answer: 320 nM

Question: What about the IC50 at 72 h [10] of the same molecule?
Answer: 300 nM

Question: What about the inhibition [11] of the same molecule?
Answer: 36.7%

Question: And the IC50 (HT-29)?
Answer: 260 nM

Question: What does the source list for COc1cc(/C=C2/C=C(c3nc4ccccc4[nH]3)NC2=O)ccc1O?
Answer: IC50 (A549 [14]): 9600 nM; IC50 (DU-145 [15]): 8700 nM; IC50 (MCF7 [16]): 7300 nM

Question: For O=C(CCc1nnc2sc(CCc3ccccc3)nn12)c1nc2cc([N+](=O)[O-])ccc2[nH]1, which IC50 (HCT-116 [17]) is on record?
Answer: 2190 nM

Question: And the IC50 (A549 [18])?
Answer: 11000 nM

Question: Which results are given for CCNC(=S)NS(=O)(=O)c1ccc(NC(=O)CCSc2nc3ccccc3o2)cc1?
Answer: IC50 (MCF7 [19]): 12300 nM; IC50 (HCT-116 [20]): 7910 nM; IC50 (HepG2 [21]): 8100 nM

Question: For COc1nc(C(=O)Nc2nc3cc(F)ccc3[nH]2)ccc1-n1cnc(C)c1, which IC50 (MCF7 [22]) is on record?
Answer: 8900 nM

Question: And the IC50 (DU-145 [23])?
Answer: 9200 nM

Question: With COc1cc(/C=N/NC(=O)COc2ccc(-c3nc4ccccc4s3)cc2OC)ccc1O as the molecule, how does the IC50 (MCF7 [12]) read?
Answer: 6580 nM

Question: And the IC50 [13]?
Answer: 170 nM

Question: Which IC50 at 72 h [7] does the source give for Cn1c(COC(=O)c2c[nH]c3ccc(Br)cc23)nc2ccccc21 here?
Answer: 270 nM

Question: And the IC50 (HeLa [8])?
Answer: 330 nM

Question: And the IC50 at 72 h [9]?
Answer: 320 nM

Question: And the IC50 at 72 h [10]?
Answer: 450 nM

Question: What about the inhibition [11] of the same molecule?
Answer: 28.8%

Question: And the IC50 (HT-29)?
Answer: 330 nM

Question: For COc1cc(C2OC(CCC(=O)c3nc4cc([N+](=O)[O-])ccc4[nH]3)=NN2C(C)=O)cc(OC)c1OC (centres undefined), which inhibition at 0.3 µM (NCI-H522) is on record?
Answer: 48.7%

Question: What about the inhibition at 0.3 µM (SK-MEL-2) of the same molecule?
Answer: 42.6%

Question: And the IC50 (UO-31)?
Answer: 19100 nM

Question: Which GI (MCF7 [24]) does the source give for COc1cc(/C=N/NC(=O)c2ccc(-c3nc4cc(C)ccc4[nH]3)cc2)cc(OC)c1OC here?
Answer: 84.33 µM

Question: Which IC50 (MCF7 [19]) does the source give for CCNC(=S)NS(=O)(=O)c1ccc(NC(=O)CCSc2nc3cc(C)ccc3o2)cc1 here?
Answer: 15700 nM

Question: And the IC50 (HCT-116 [20])?
Answer: 12500 nM

Question: And the IC50 (HepG2 [21])?
Answer: 9950 nM

Question: For O=[N+]([O-])c1ccc(NC(=S)Nc2cccc(-c3nc4ccccc4[nH]3)c2)cc1, which IC50 [25] is on record?
Answer: 8.9 nM

Question: And the IC50 (MCF7 [26])?
Answer: 5840 nM

Question: What about the IC50 [27] of the same molecule?
Answer: 6.7 nM

Question: With COc1cc(/C=C2/C=C(c3nc4ccccc4[nH]3)NC2=O)cc(OC)c1OC as the molecule, how does the IC50 (A549 [14]) read?
Answer: 8300 nM

Question: And the IC50 (DU-145 [15])?
Answer: 7700 nM

Question: And the IC50 (MCF7 [16])?
Answer: 7200 nM

Question: For Cc1ccc2[nH]c(-c3ccc(C(=O)N/N=C/c4ccc(Cl)cc4Cl)cc3)nc2c1, which GI (MCF7 [24]) is on record?
Answer: 30.51 µM

Question: With O=C(CSc1nc2ccccc2o1)Nc1ccc(C(=O)Nc2ccc([N+](=O)[O-])cc2)cc1 as the molecule, how does the IC50 (MCF7 [5]) read?
Answer: 3430 nM

Question: What about the IC50 (HCT-116 [6]) of the same molecule?
Answer: 2790 nM

Question: What about the IC50 (HepG2 [28]) of the same molecule?
Answer: 2430 nM

Question: For O=C(OCc1nc2ccccc2[nH]1)c1c[nH]c2ccccc12, which IC50 at 72 h [7] is on record?
Answer: 370 nM

Question: And the IC50 (HeLa [8])?
Answer: 190 nM

Question: What about the IC50 at 72 h [9] of the same molecule?
Answer: 560 nM

Question: What about the IC50 at 72 h [10] of the same molecule?
Answer: 540 nM

Question: And the inhibition [11]?
Answer: 34%

Question: What about the IC50 (HT-29) of the same molecule?
Answer: 190 nM
